“Also recorded” adds a separate entry of the source.
Experiments:
[1] = test system: human aortic SMCs (AoSMCs); experiment: Immunocytochemistry and morphometry of elastic fibers in AoSMC cultures; type: cell-based; details: for effect of inhibitor on elastogenic effects of insulin (immunostained elastic fibers, [3H]-valine-labeled insoluble elastin): 2% FBS; for effect of inhibitor on elastogenic effects of IGF-1: 10 nmol/L IGF-1, parallel AoSMC cultures
Description: Human aortic SMCs (AoSMCs) were propagated from small fragments of aortic media collected from autopsy. Guidelines for the protection of human subjects of the US Department of Health and Human Services and of the Declaration of Helsinki were followed in obtaining tissues for this investigation. Cells migrating from the cultured explants of aortic media were routinely passaged (up to three times) via trypsinization using 0.2% trypsin-0.02% EDTA, and were maintained in DMEM supplemented with 5% FBS and 1% antibiotic-antimycotic mix. The second and third passages of cells that migrated from the original explants of aortic media were routinely probed with antibodies recognizing the SMC-specific α-actin to monitor the preservation of the SMC phenotype. All cells were initially plated at 100,000 cells per dish for immediate confluency so they would begin extracellular matrix production. The cell cultures committed to particular experiments were then transferred to DMEM containing either 2% FBS or to serum-free medium before initiation of particular treatments.
At the end of treatments, confluent cultures of AoSMCs were fixed in cold 100% methanol at −20° C. for 30 minutes, and blocked with 1% normal goat serum for 1 hour. The cultures were then incubated for 1 hour with 10 μg/mL polyclonal antibodies to tropoelastin and/or with 10 μg/mL monoclonal antibody to SMC-specific α-actin. All cultures were then incubated for another hour with the respective fluorescein-conjugated secondary antibodies (fluorescein-conjugated goat anti-rabbit or anti-mouse). Nuclei were counterstained with red-fluorescent propidium iodide or blue-fluorescent DAPI. The cultures were then mounted in ethanol and examined using a microscope (Eclipse E1000; Nikon Instruments, Inc., Melville, N.Y.) attached to a cooled CCD camera (Retiga EX; QImaging Corp., Vancouver, BC, Canada) and a computer-generated morphometric analysis system (Image-Pro Plus software; Media Cybernetics, Inc., Bethesda, Md.). In each analyzed group, 50 low-power fields from three separate cultures were analyzed, and the areas occupied by immunodetectable elastic fibers were expressed as a percentage of the entire analyzed field.

tropoelastin mRNA = experiment: RT-PCR assay of tropoelastin mRNA; type: cell-based, human; details: 10 nmol/L insulin; for effect of inhibitor on insulin-induced up-regulation of tropoelastin mRNA: pretreated 30 minutes and maintained with inhibitor
Protocol: At the end of the treatments, total RNA was extracted from quadruplicate cultures in each experimental group using the RNEASY® (RNA isolation) Mini Kit. One microgram total RNA from each sample was added to one-step RT-PCR (One-Step RT-PCR Kit; Qiagen, Inc.). The reactions were set up in a total volume of 25 μL. The reverse transcription step was performed for elastin and 18S ribosomal RNA reactions at 50° C. for 30 minutes, followed by 15 minutes at 95° C. The elastin PCR reaction using sense primer 5′[…]-3′ (SEQ ID NO 1) and antisense primer 5′[…]3′ (SEQ ID NO 2). The products were analyzed using ethidium bromide staining and densitometry-based image analysis using an optical system (Gel Doc 1000; Bio-Rad Laboratories, Inc., Hercules, Calif.). The amount of tropoelastin mRNA was standardized relative to the amount of 18S ribosomal RNA and expressed as percentage of control values.

FoxO1 = FoxO1 binding to elastin gene promoter DNA probe (FRE) on DYNABEADS; type: cell-based, human; details: AoSMCs treated 30 minutes with 10 nmol/L insulin, or preincubated with LY294002
Protocol: Cells were then scraped, and their nuclear extracts were pre-pared using an isolation kit (Active Motif, Inc.). […] The equal molar amounts of both single-stranded DNA oligonucleotides were annealed in Tris-EDTA buffer (10 mmol/L Tris-HCl, 1 mmol/L EDTA (pH 8.0)) to form the double-stranded DNA probe. […] All preparations were subsequently incubated for 2 hours in 200 μL binding buffer (50 mmol/L KCl, 10% glycerol, 20 mmol/L HEPES (pH 7.9), 1 mmol/L MgCl2, 1 mmol/L DTT, 0.1 μg poly(DI-DC) (polydeoxyinosinic-deoxycytidylic), and proteinase inhibitors). After binding, the beads were washed four times in the same binding buffer, without poly(DI-DC). The bound proteins were resolved using 8% SDS-PAGE and probed using Western blotting with the anti-FoxO1 monoclonal antibody.

tropoelastin = experiment: Metabolically labeled tropoelastin in cell extracts and conditioned media (secretion); type: cell-based, human; details: 1-hour preincubation with LY294002, 10 nmol/L insulin
Protocol: Cells were plated in 35-mm dishes at a density of 100,000 cells per dish and were grown to confluency. Two microcuries [3H]-valine per milliliter fresh medium supplemented with 2% FBS was added 2 hours before the indicated treatments. At the end of each experiment, the conditioned medium was collected and subjected to immunoprecipitation using anti-tropoelastin antibody. The cell layers were washed with PBS and incubated using radioimmunoprecipitation lysis buffer for 10 minutes on ice. After centrifugation, the supernatants were collected and subjected to immunoprecipitation using anti-tropoelastin antibody. […] Final results (counts per minute) reflecting the total amount of [3H]-valine-labeled insoluble elastin in individual cultures were normalized per their DNA contents (assessed using the Qiagen […] isolation) Tissue Kit) and expressed as percentage of control values. At the end of all treatments, cells from quadruplicate cultures in each experimental group were lysed using NP40 cell lysis buffer (Invitrogen Corp.). Thirty micrograms of protein extracts from each sample was suspended in standard sample buffer, resolved on 4% to 12% gradient SDS-PAGE gels, transferred to nitrocellulose membranes, and subjected to Western blotting using antibodies. At the end of indicated treatments, the cultured cells were lysed as described, and 300 μL aliquots of cell extracts containing […] were incubated at 4° C. for 3 hours with the aliquots of protein G bound DYNABEADS® (Invitrogen Corp.) that were conjugated with either rabbit polyclonal anti-tropoelastin, goat polyclonal anti-Glut10, or rabbit polyclonal anti-S-Gal antibodies. The beads carrying the final immunoprecipitation products were then washed with PBS, resuspended in sample buffer, and boiled for 5 minutes. The released proteins were then resolved on SDS-PAGE gel and subjected to Western blotting using indicated antibodies.

S-Gal/EBP = experiment: Association of tropoelastin with S-Gal/EBP chaperone (Western blot, co-immunoprecipitation, double immunostaining); type: cell-based, human
Protocol: Cultures fixed for 30 minutes in cold 100% methanol were then blocked with 1% glycine for 15 minutes, followed by 2% bovine serum albumin with 0.1% Triton X-100 for another hour at room temperature. They were finally exposed for 1 hour to the mixture of 5 μg/mL polyclonal anti-S-Gal/EBP and 5 μg/mL monoclonal anti-tropoelastin antibodies. All cultures were then incubated for another hour with the mixture of fluorescein-conjugated and rhodamine-conjugated secondary antibodies. Nuclei were counterstained with DAPI. At the end of all treatments, cells from quadruplicate cultures in each experimental group were lysed using NP40 cell lysis buffer (Invitrogen Corp.). Thirty micrograms of protein extracts from each sample was suspended in standard sample buffer, resolved on 4% to 12% gradient SDS-PAGE gels, transferred to nitrocellulose membranes, and subjected to Western blotting using antibodies. At the end of indicated treatments, the cultured cells were lysed as described, and 300 μL aliquots of cell extracts containing […] were incubated at 4° C. for 3 hours with the aliquots of protein G bound DYNABEADS® (Invitrogen Corp.) that were conjugated with either rabbit polyclonal anti-tropoelastin, goat polyclonal anti-Glut10, or rabbit polyclonal anti-S-Gal antibodies. The beads carrying the final immunoprecipitation products were then washed with PBS, resuspended in sample buffer, and boiled for 5 minutes. The released proteins were then resolved on SDS-PAGE gel and subjected to Western blotting using indicated antibodies.

[2] = 24-hour AoSMC cultures, 10 nmol/L insulin
[3] = 10 nmol/L IGF-1, 24-hour AoSMC cultures

For `CC(C)(C)c1cc(C=C(C#N)C#N)cc(Br)c1O` [AG1024], the “effect of inhibitor on elastogenic effects of insulin (immunostained elastic fibers, [3H]-valine-labeled insoluble elastin)” value [1, 2] was “eliminated the elastogenic effects” and the “effect of inhibitor on insulin-induced up-regulation of tropoelastin mRNA” value (shortened to “effect of inhibitor … of tropoelastin mRNA”) (tropoelastin mRNA) was “abrogated”.
For `COc1ccc(CNc2nc(N(CCO)CCO)nc3c2ncn3C(C)C)cc1` [CVT313], the “effect of cdk-2 inhibition on elastogenic effect of IGF-1” value [1, 3] was “abolished the final elastogenic effect” and the “effect of cdk-2 inhibition on elastogenic effect of insulin” value ([1]; 10 nmol/L insulin, 24-hour AoSMC cultures) was “did not diminish the elastogenic effect; also recorded: still exhibited heightened deposition of elastic fibers”.
With `COc1cc([C@@H]2c3cc4c(cc3[C@H](O)[C@H]3COC(=O)[C@@H]23)OCO4)cc(OC)c1OC` [picropodophyllin] the “effect of inhibitor on elastogenic effects of IGF-1” value [1] was “also eliminated” and the “effect of inhibitor … of tropoelastin mRNA” value (tropoelastin mRNA) was “did not inhibit”.
IGF-1 was tested, and the “elastogenic effect of IGF-1” value [1, 3] was “elastogenic effects”.
`O=c1cc(N2CCOCC2)oc2c(-c3ccccc3)cccc12` [LY294002] was tested, and the “effect of inhibitor on elastogenic effects of IGF-1” value [1] was “abolished the elastogenic effects; also recorded: also eliminated”, the “effect of inhibitor on elastogenic effects of insulin (immunostained elastic fibers, [3H]-valine-labeled insoluble elastin)” value [1, 2] was “eliminated the elastogenic effects” and the “effect of inhibitor … of tropoelastin mRNA” value (tropoelastin mRNA) was “abrogated”. The “binding of FoxO1 from nuclear extracts to elastin promoter FRE DNA probe” value (FoxO1) was “bound abundant FoxO1 proteins”, the “effect of PI3K inhibition on insulin-induced changes in tropoelastin levels” value (tropoelastin) was “could not be observed” and the “insulin-induced tropoelastin/S-Gal/EBP co-localization in cells preincubated with inhibitor” value (S-Gal/EBP; LY294002 preincubation (data not shown)) was “could not induce such tropoelastin/S-Gal/EBP co-localization”. The “effect of PI3K inhibitor on insulin-induced S-Gal/EBP coimmunoprecipitation” value (S-Gal/EBP; pretreated 30 minutes with PI3K inhibitor) was “could not be induced; also recorded: could not induce the same effect”.
For `OC[C@H]1O[C@@H](n2cnc3cc(Cl)c(Cl)cc32)[C@H](O)[C@@H]1O` [dichloro-benzimidazole riboside, dichlorobenzimidazole riboside], the “effect of transcription inhibitor on insulin-induced up-regulation of tropoelastin mRNA” value (tropoelastin mRNA; pretreatment with 50 μmol/L inhibitor) was “completely abolished”.

Source: patent publication US20150359854A1 (HUMAN MATRIX SCIENCES, LLC, priority 2012, published 2015)
